# Assay results taken from PubChem BioAssay AID1259407 (Chemical Carcinogenesis Research Information System (CCRIS), 2018).
# Active and inactive are the calls of the source. No rule for the calls is given here.
# Test system: CCRIS mutagenicity, Ames/micronucleus/aberration tests
# Experiment: CCRIS mutagenicity studies
# [1] = Test System: AMES SALMONELLA TYPHIMURIUM, Strain/Indicator: TA98, Metabolic Activation: NONE, Method: PREINCUBATION
# [2] = Test System: AMES SALMONELLA TYPHIMURIUM, Strain/Indicator: TA100, Metabolic Activation: NONE, Method: PREINCUBATION
structure (smiles),measurement,setting,value
Nc1cccc2c1ccc1ccccc12,mutagenic call,"Test System: AMES SALMONELLA TYPHIMURIUM, Strain/Indicator: TA98, Metabolic Activation: RAT, LIVER, S-9, AROCLOR 1254 (2 OR 4%), Method: STANDARD PLATE",active; positive
same,mutagenic call,"Test System: AMES SALMONELLA TYPHIMURIUM, Strain/Indicator: TA100, Metabolic Activation: RAT, LIVER, S-9, AROCLOR 1254 (2%), Method: STANDARD PLATE",active; positive
same,mutagenic call,"Test System: AMES SALMONELLA TYPHIMURIUM, Strain/Indicator: TA1535, Metabolic Activation: RAT, LIVER, S-9, AROCLOR 1254 (2%), Method: STANDARD PLATE",inactive; negative
same,mutagenic call,"Test System: AMES SALMONELLA TYPHIMURIUM, Strain/Indicator: TA1537, Metabolic Activation: RAT, LIVER, S-9, AROCLOR 1254 (2%), Method: STANDARD PLATE",active; positive
Oc1ccc2c3ccccc3c3cc4ccccc4cc3c2c1O,mutagenic call,"Test System: AMES SALMONELLA TYPHIMURIUM, Strain/Indicator: TA100, Metabolic Activation: RAT, LIVER, S-9, AROCLOR 1254, Method: PREINCUBATION",active; positive
O=C(O[C@H]1Cc2c(O)cc(O)cc2O[C@H]1c1ccc(O)c(O)c1)c1cc(O)c(O)c(O)c1,mutagenic call,"Test System: Ames Salmonella typhimurium, Strain/Indicator: TA102, Metabolic Activation: None, Method: Preincubation",inactive; negative
same,mutagenic call,"Test System: Ames Salmonella typhimurium, Strain/Indicator: TA102, Metabolic Activation: Rat, Liver, S-9, Aroclor 1254 in 0.154 M KCl, Method: Preincubation",inactive; negative
O=CNc1nc(-c2ccc([N+](=O)[O-])cc2)cs1,mutagenic call,"Test System: AMES SALMONELLA TYPHIMURIUM, Strain/Indicator: TA98, Metabolic Activation: RAT, LIVER, S-9, KC500 OR PHENOBARBITAL, Method: LIQUID SUSPENSION",active; positive
same,mutagenic call,"Test System: AMES SALMONELLA TYPHIMURIUM, Strain/Indicator: TA100, Metabolic Activation: RAT, LIVER, S-9, KC500 OR PHENOBARBITAL, Method: LIQUID SUSPENSION",active; positive
CO/N=C(\C(=O)N[C@@H]1C(=O)N2C(C(=O)OCOC(=O)C(C)(C)C)=C(/C=C\c3scnc3C)CS[C@H]12)c1csc(N)n1,mutagenic call,[1],inactive; negative
same,mutagenic call,"Test System: AMES SALMONELLA TYPHIMURIUM, Strain/Indicator: TA98, Metabolic Activation: RAT, LIVER, S-9, PHENOBARBITAL AND 5,6-BENZOFLAVONE, Method: PREINCUBATION",inactive; negative
same,mutagenic call,[2],inactive; negative
same,mutagenic call,"Test System: AMES SALMONELLA TYPHIMURIUM, Strain/Indicator: TA100, Metabolic Activation: RAT, LIVER, S-9, PHENOBARBITAL AND 5,6-BENZOFLAVONE, Method: PREINCUBATION",inactive; negative
same,mutagenic call,"Test System: AMES SALMONELLA TYPHIMURIUM, Strain/Indicator: TA1535, Metabolic Activation: NONE, Method: PREINCUBATION",inactive; negative
same,mutagenic call,"Test System: AMES SALMONELLA TYPHIMURIUM, Strain/Indicator: TA1535, Metabolic Activation: RAT, LIVER, S-9, PHENOBARBITAL AND 5,6-BENZOFLAVONE, Method: PREINCUBATION",inactive; negative
same,mutagenic call,"Test System: AMES SALMONELLA TYPHIMURIUM, Strain/Indicator: TA1537, Metabolic Activation: NONE, Method: PREINCUBATION",inactive; negative
same,mutagenic call,"Test System: AMES SALMONELLA TYPHIMURIUM, Strain/Indicator: TA1537, Metabolic Activation: RAT, LIVER, S-9, PHENOBARBITAL AND 5,6-BENZOFLAVONE, Method: PREINCUBATION",inactive; negative
same,mutagenic call,"Test System: AMES SALMONELLA TYPHIMURIUM, Strain/Indicator: TA1538, Metabolic Activation: NONE, Method: PREINCUBATION",inactive; negative
same,mutagenic call,"Test System: AMES SALMONELLA TYPHIMURIUM, Strain/Indicator: TA1538, Metabolic Activation: RAT, LIVER, S-9, PHENOBARBITAL AND 5,6-BENZOFLAVONE, Method: PREINCUBATION",inactive; negative
same,mutagenic call,"Test System: E. COLI, Strain/Indicator: WP2 UVRA, Metabolic Activation: NONE, Method: PREINCUBATION",inactive; negative
same,mutagenic call,"Test System: E. COLI, Strain/Indicator: WP2 UVRA, Metabolic Activation: RAT, LIVER, S-9, PHENOBARBITAL AND 5,6-BENZOFLAVONE, Method: PREINCUBATION",inactive; negative
same,mutagenic call,"Test System: MOUSE LYMPHOMA, Strain/Indicator: L5178Y (TK+/TK-), Metabolic Activation: NONE",inactive; negative
same,mutagenic call,"Test System: MOUSE LYMPHOMA, Strain/Indicator: L5178Y (TK+/TK-), Metabolic Activation: RAT, LIVER, S-9, PHENOBARBITAL AND 5,6-BENZOFLAVONE",inactive; negative
same,mutagenic call,"Test System: UDS RAT STOMACH MUCOSA CELLS, Strain/Indicator: THY INCORP, Metabolic Activation: NONE, Method: IN VIVO-IN VITRO",inactive; negative
CCN(CC)C(=S)S[C@@H]1O[C@H](CO)[C@@H](O)[C@H](O)[C@H]1O,mutagenic call,"Test System: AMES SALMONELLA TYPHIMURIUM, Strain/Indicator: TA98, Metabolic Activation: NONE, Method: STANDARD PLATE",inactive; negative
same,mutagenic call,"Test System: AMES SALMONELLA TYPHIMURIUM, Strain/Indicator: TA98, Metabolic Activation: RAT, LIVER, S-9, AROCLOR 1254, Method: STANDARD PLATE",inactive; negative
same,mutagenic call,"Test System: AMES SALMONELLA TYPHIMURIUM, Strain/Indicator: TA100, Metabolic Activation: NONE, Method: STANDARD PLATE",inactive; negative
same,mutagenic call,"Test System: AMES SALMONELLA TYPHIMURIUM, Strain/Indicator: TA100, Metabolic Activation: RAT, LIVER, S-9, AROCLOR 1254, Method: STANDARD PLATE",inactive; negative
CCn1cc(C(=O)O)c(=O)c2cc(F)c(N3CCNCC3)cc21,mutagenic call,"End Point: In vitro micronucleus, Test System: WTK-1 human lymphoma cells, Metabolic Activation: None",active; positive
same,mutagenic call,[1],inactive; negative
same,mutagenic call,"Test System: AMES SALMONELLA TYPHIMURIUM, Strain/Indicator: TA98, Metabolic Activation: RAT LIVER S-9, AROCLOR 1254, Method: PREINCUBATION",inactive; negative
same,mutagenic call,[2],inactive; negative
same,mutagenic call,"Test System: AMES SALMONELLA TYPHIMURIUM, Strain/Indicator: TA100, Metabolic Activation: RAT LIVER S-9, AROCLOR 1254, Method: PREINCUBATION",inactive; negative
same,mutagenic call,"Test System: AMES SALMONELLA TYPHIMURIUM, Strain/Indicator: TA102, Metabolic Activation: NONE, Method: PREINCUBATION",active; positive
same,mutagenic call,"Test System: AMES SALMONELLA TYPHIMURIUM, Strain/Indicator: TA102, Metabolic Activation: NONE, Method: STANDARD PLATE",active; positive
same,mutagenic call,"Test System: AMES SALMONELLA TYPHIMURIUM, Strain/Indicator: TA102, Metabolic Activation: RAT LIVER S-9, AROCLOR 1254, Method: PREINCUBATION",active; positive
same,mutagenic call,"Test System: AMES SALMONELLA TYPHIMURIUM, Strain/Indicator: TA102, Metabolic Activation: RAT LIVER S-9, AROCLOR 1254, Method: STANDARD PLATE",active; positive
same,mutagenic call,"Test System: AMES SALMONELLA TYPHIMURIUM, Strain/Indicator: TA104, Metabolic Activation: NONE, Method: PREINCUBATION",active; positive
same,mutagenic call,"Test System: AMES SALMONELLA TYPHIMURIUM, Strain/Indicator: TA104, Metabolic Activation: RAT LIVER S-9, AROCLOR 1254, Method: PREINCUBATION",active; positive
same,mutagenic call,"Test System: AMES SALMONELLA TYPHIMURIUM, Strain/Indicator: UHT8414, Metabolic Activation: NONE, Method: PREINCUBATION",inactive; negative
same,mutagenic call,"Test System: AMES SALMONELLA TYPHIMURIUM, Strain/Indicator: UHT8414, Metabolic Activation: RAT LIVER S-9, AROCLOR 1254, Method: PREINCUBATION",inactive; negative
same,mutagenic call,"Test System: Ames Salmonella typhimurium, Strain/Indicator: TA102, Metabolic Activation: Rat, Liver, S9, Aroclor 1254, Method: Preincubation",active; positive. vitamin e (alpha-tocoferol) induced a statistically significant reduct
same,mutagenic call,"Test System: CHINESE HAMSTER V-79, Strain/Indicator: V-79 (HPRT)/6-THIOGUANINE, Metabolic Activation: NONE",inactive; negative
same,mutagenic call,"Test System: MOUSE LYMPHOMA, Strain/Indicator: L5178Y (HPRT)/6-THIOGUANINE, Metabolic Activation: NONE, Method: FLUCTUATION TEST",inactive; negative
same,mutagenic call,"Test System: MOUSE LYMPHOMA, Strain/Indicator: L5178Y (TK+/TK-), Metabolic Activation: NONE, Method: FLUCTUATION TEST",inactive; negative
